From ChEMBL document CHEMBL1201862, “PubChem BioAssay data set” (2004)
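Where inhibition never reached the appropriate level, the endpoint shown equals the highest concentration tested. Otherwise, values were interpolated linearly from a five-concentration, 48-hour dose response in 96-well plates. GI50: concentration for 50% inhibition of growth.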 The source made the active and inactive calls. Rule as the data show it: active = GI50 up to about 1.1 µM and inactive = higher.

How the values were obtained:
Test in all cases: NCI anticancer screen, dose series, 48 h
OVCAR-8 = system: OVCAR-8
PC-3 = system: PC-3
SK-MEL-2 = system: SK-MEL-2
HL-60 = system: HL-60
SF-268 = system: SF-268
HCC 2998 = system: HCC 2998
SNB-75 = system: SNB-75
RXF 393 = system: RXF 393
Hs-578T = system: Hs-578T
LOX IMVI = system: LOX IMVI
HCT-116 = system: HCT-116
M14 = system: M14
SK-MEL-28 = system: SK-MEL-28
CCRF-CEM = system: CCRF-CEM
SK-OV-3 = system: SK-OV-3
NCI/ADR-RES = system: NCI/ADR-RES
RPMI-8226 = system: RPMI-8226
Malme-3M = system: Malme-3M
SN12C = system: SN12C
SW-620 = system: SW-620
K562 = system: K562
MCF7 = system: MCF7
SF-539 = system: SF-539
SNB-19 = system: SNB-19
EKVX = system: EKVX
CAKI-1 = system: CAKI-1
HOP-92 = system: HOP-92
MDA-N = system: MDA-N
NCI-H522 = system: NCI-H522
HT-29 = system: HT-29
MDA-MB-231 = system: MDA-MB-231
BT-549 = system: BT-549
UACC-257 = system: UACC-257
SK-MEL-5 = system: SK-MEL-5
786-0 = system: 786-0
HCT-15 = system: HCT-15
UACC-62 = system: UACC-62
SR = system: SR
COLO 205 = system: COLO 205
OVCAR-5 = system: OVCAR-5
ACHN = system: ACHN
TK-10 = system: TK-10
A549 = system: A549
MDA-MB-435 = system: MDA-MB-435
KM12 = system: KM12
IGROV-1 = system: IGROV-1
UO-31 = system: UO-31
NCI-H226 = system: NCI-H226
T47D = system: T47D
NCI-H460 = system: NCI-H460
NCI-H23 = system: NCI-H23
OVCAR-4 = system: OVCAR-4
HOP-62 = system: HOP-62
OVCAR-3 = system: OVCAR-3
SF-295 = system: SF-295
DU-145 = system: DU-145
U-251 = system: U-251
A498 = system: A498

SMILES: CCC(N)(C(=O)O)C(C)C (stereo not drawn)
- GI50 (OVCAR-8): > 100 µM (inactive)
- GI50 (PC-3): > 100 µM (inactive)
- GI50 (SK-MEL-2): > 100 µM (inactive)
- GI50 (HL-60): > 100 µM (inactive)
- GI50 (SF-268): > 100 µM (inactive)
- GI50 (HCC 2998): > 100 µM (inactive)
- GI50 (SNB-75): > 100 µM (inactive)
- GI50 (RXF 393): > 100 µM (inactive)
- GI50 (Hs-578T): > 100 µM (inactive)
- GI50 (LOX IMVI): > 100 µM (inactive)
- GI50 (HCT-116): > 100 µM (inactive)
- GI50 (M14): > 100 µM (inactive)
- GI50 (SK-MEL-28): > 100 µM (inactive)
- GI50 (CCRF-CEM): > 100 µM (inactive)
- GI50 (SK-OV-3): > 100 µM (inactive)
- GI50 (NCI/ADR-RES): > 100 µM (inactive)
- GI50 (RPMI-8226): > 100 µM (inactive)
- GI50 (Malme-3M): > 100 µM (inactive)
- GI50 (SN12C): > 100 µM (inactive)
- GI50 (SW-620): > 100 µM (inactive)
- GI50 (K562): > 100 µM (inactive)
- GI50 (MCF7): > 100 µM (inactive)
- GI50 (SF-539): > 100 µM (inactive)
- GI50 (SNB-19): > 100 µM (inactive)
- GI50 (EKVX): > 100 µM (inactive)
- GI50 (CAKI-1): > 100 µM (inactive)
- GI50 (HOP-92): 34.8 µM (inactive)
- GI50 (MDA-N): > 100 µM (inactive)
- GI50 (NCI-H522): > 100 µM (inactive)
- GI50 (HT-29): > 100 µM (inactive)
- GI50 (MDA-MB-231): > 100 µM (inactive)
- GI50 (BT-549): > 100 µM (inactive)
- GI50 (UACC-257): > 100 µM (inactive)
- GI50 (SK-MEL-5): > 100 µM (inactive)
- GI50 (786-0): > 100 µM (inactive)
- GI50 (HCT-15): > 100 µM
- GI50 (UACC-62): > 100 µM (inactive)
- GI50 (SR): > 100 µM (inactive)
- GI50 (COLO 205): > 100 µM (inactive)
- GI50 (OVCAR-5): > 100 µM (inactive)
- GI50 (ACHN): > 100 µM (inactive)
- GI50 (TK-10): > 100 µM (inactive)
- GI50 (A549): > 100 µM (inactive)
- GI50 (MDA-MB-435): > 100 µM (inactive)
- GI50 (KM12): > 100 µM (inactive)
- GI50 (IGROV-1): > 100 µM (inactive)
- GI50 (UO-31): > 100 µM (inactive)
- GI50 (NCI-H226): > 100 µM (inactive)
- GI50 (T47D): > 100 µM (inactive)
- GI50 (NCI-H460): > 100 µM (inactive)
- GI50 (NCI-H23): > 100 µM (inactive)
- GI50 (OVCAR-4): > 100 µM (inactive)
- GI50 (HOP-62): > 100 µM (inactive)
- GI50 (OVCAR-3): > 100 µM (inactive)
- GI50 (SF-295): > 100 µM (inactive)
- GI50 (DU-145): > 100 µM (inactive)
- GI50 (U-251): > 100 µM (inactive)
- GI50 (A498): > 100 µM (inactive)
